Assay results as given in US5693661A (priority 1995, dated 1997).
In brackets after ≈: the same amount, converted by molar mass.

Key:
Assay type in all cases: cell-based
RhV-14 (Rhinovirus) = test: microbe, parasite or virus in culture; conditions: 120 hours at 32° C.; for IC50: Enterovirus, 120 h, read-out: IC50, RhV-14 (50 percent inhibition of plaque formation)
RhV-1 (Rhinovirus) = test: microbe, parasite or virus in culture; conditions: Enterovirus; 120 hours at 32° C.; read-out: IC50, RhV-1 (50 percent inhibition of plaque formation)
RhV-2 (Rhinovirus) = test: microbe, parasite or virus in culture; conditions: Enterovirus; 120 hours at 32° C.; read-out: IC50, RhV-2 (50 percent inhibition of plaque formation)
RhV-16 (Rhinovirus) = test: microbe, parasite or virus in culture; conditions: Enterovirus; 120 hours at 32° C.; read-out: IC50, RhV-16 (50 percent inhibition of plaque formation)
CS-B3 (Coxsackie virus) = test: organism not typed; conditions: 72 hours at 37° C.; read-out: IC50, CS-B3 (50 percent inhibition of plaque formation)
PV-1 (poliovirus) = test: microbe, parasite or virus in culture; conditions: Enterovirus C; 72 hours at 37° C.; read-out: IC50, PV-1 (50 percent inhibition of plaque formation)
[1] = system: CS-A21C (Coxsackie virus); test: organism not typed; conditions: 72 hours at 37° C.; read-out: IC50, CS-A21C (50 percent inhibition of plaque formation)

SMILES | IC50 (RhV-14 (Rhinovirus)) [µg/mL] | IC50 (PV-1 (poliovirus)) [µg/mL] | further results
CC(C)S(=O)(=O)n1c(N)nc2ccc(/C(=C\C#C[Si](C)(C)C)c3ccc(F)cc3)cc21 [1A (cis)] | 3.9 (≈ 8.56 µM) | – | –
CC(C)S(=O)(=O)n1c(N)nc2ccc(/C(=C/C#C[Si](C)(C)C)c3ccc(F)cc3)cc21 [1A (trans)] | 10.9 (≈ 23.9 µM) | – | –
C#C/C=C(\c1ccc(F)cc1)c1ccc2nc(N)n(S(=O)(=O)C(C)C)c2c1 [1B (trans)] | 0.101 (≈ 0.263 µM) | – | IC50 (RhV-1 (Rhinovirus)): 0.078 µg/mL (≈ 0.203 µM); IC50 (RhV-2 (Rhinovirus)): 0.091 µg/mL (≈ 0.237 µM); IC50 (RhV-16 (Rhinovirus)): 0.032 µg/mL (≈ 0.0835 µM)
C#C/C=C(/c1ccccc1)c1ccc2nc(N)n(S(=O)(=O)C(C)C)c2c1 [2C (cis)] | – | 0.19 (≈ 0.52 µM) | IC50 (CS-B3 (Coxsackie virus)): 0.055 µg/mL (≈ 0.15 µM)
C#C/C=C(\c1ccccc1)c1ccc2nc(N)n(S(=O)(=O)C(C)C)c2c1 [2C (trans)] | 0.081 (≈ 0.222 µM) | 0.035 (≈ 0.0958 µM) | IC50 (RhV-1 (Rhinovirus)): 0.033 µg/mL (≈ 0.0903 µM); IC50 (RhV-2 (Rhinovirus)): 0.065 µg/mL (≈ 0.178 µM); IC50 (RhV-16 (Rhinovirus)): 0.039 µg/mL (≈ 0.107 µM); IC50 [1]: 0.32 µg/mL (≈ 0.876 µM)
C#C/C=C(\c1ccc(OC)cc1)c1ccc2nc(N)n(S(=O)(=O)C(C)C)c2c1 [3 (trans)] | 0.059 (≈ 0.149 µM) | 0.21 (≈ 0.531 µM) | IC50 (RhV-1 (Rhinovirus)): 0.03 µg/mL (≈ 0.0759 µM); IC50 (RhV-2 (Rhinovirus)): 0.041 µg/mL (≈ 0.104 µM); IC50 (RhV-16 (Rhinovirus)): 0.029 µg/mL (≈ 0.0733 µM)
C#C/C=C(\c1ccc(SC)cc1)c1ccc2nc(N)n(S(=O)(=O)C(C)C)c2c1 [4 (trans)] | – | 0.5 (≈ 1.21 µM) | –
C#C/C=C(\c1ccccc1)c1cc2c(cc1F)nc(N)n2S(=O)(=O)C(C)C [5 (trans)] | 1.9 (≈ 4.96 µM) | – | –
C#C/C=C(\c1ccc(C)c(C)c1)c1ccc2nc(N)n(S(=O)(=O)C(C)C)c2c1 [8 (trans)] | – | 0.1 (≈ 0.254 µM) | –
C#C/C=C(/c1ccccc1)c1ccc2nc(N)n(-c3ccc(OC)cc3)c2c1 [9 (cis)] | – | 0.52 (≈ 1.42 µM) | –
C#C/C=C(\c1ccccc1)c1ccc2nc(N)n(-c3ccc(OC)cc3)c2c1 [9 (trans)] | – | 0.11 (≈ 0.301 µM) | –
C#C/C=C(/c1ccc(C(C)C)cc1)c1ccc2nc(N)n(S(=O)(=O)C(C)C)c2c1 [11 (cis)] | – | 2.74 (≈ 6.72 µM) | –
C#C/C=C(\c1ccc(C(C)C)cc1)c1ccc2nc(N)n(S(=O)(=O)C(C)C)c2c1 [11 (trans)] | – | 0.088 (≈ 0.216 µM) | –
C#C/C=C(/c1ccccc1)c1ccc2ncn(S(=O)(=O)C(C)C)c2c1 [12 (cis)] | – | 50 (≈ 143 µM) | –
C#C/C=C(\c1ccccc1)c1ccc2ncn(S(=O)(=O)C(C)C)c2c1 [12 (trans)] | – | 19.2 (≈ 54.8 µM) | –
C#C/C=C(\c1ccc(C(F)(F)F)cc1)c1ccc2nc(N)n(S(=O)(=O)C(C)C)c2c1 [13 (trans)] | – | 0.12 (≈ 0.277 µM) | –
C#C/C=C(\c1cccc(C(F)(F)F)c1)c1ccc2nc(N)n(S(=O)(=O)C(C)C)c2c1 [14 (trans)] | 0.331 (≈ 0.764 µM) | – | –
C#CC=C(c1ccc(N(C)C)cc1)c1ccc2nc(N)n(S(=O)(=O)C(C)C)c2c1 [15B (trans)] | 0.1 (≈ 0.245 µM) | – | –
C#CC=C(c1cccc(F)c1)c1ccc2nc(N)n(S(=O)(=O)N(C)C)c2c1 [16B (trans)] | 0.038 (≈ 0.0988 µM) | – | –

SMILES | IC50 (RhV-14 (Rhinovirus)) [µg/mL] | IC50 (PV-1 (poliovirus)) [µg/mL] | further results
C#CC=C(c1cccc(F)c1)c1ccc2nc(N)n(S(=O)(=O)N(C)C)c2c1 [17 (trans)] | – | – | IC50, RhV-14 (50 percent inhibition of plaque formation) (RhV-14 (Rhinovirus)): 0.071 µg/mL
C#CC=C(c1ccc(F)c(F)c1)c1ccc2nc(NS(C)(=O)=O)n(S(=O)(=O)C(C)C)c2c1 [18 (trans)] | 1.88 (≈ 3.92 µM) | – | –
C#CC=C(c1ccc(C)cc1)c1ccc2nc(N)n(S(=O)(=O)C(C)C)c2c1 [19 (trans)] | 0.078 (≈ 0.206 µM) | – | –
C#CC=C(c1ccc(F)c(F)c1)c1ccc2nc(N)n(S(=O)(=O)C(C)C)c2c1 [20 (trans)] | 0.155 (≈ 0.386 µM) | – | –
C#CC=C(c1ccc2nc(N)n(S(=O)(=O)C(C)C)c2c1)c1ccccc1F [21 (cis)] | – | – | IC50, RhV-14 (50 percent inhibition of plaque formation) (RhV-14 (Rhinovirus)): 0.478 µg/mL
C#CC=C(c1ccc2nc(N)n(S(=O)(=O)C(C)C)c2c1)c1ccccc1F [21 (trans)] | – | – | IC50, RhV-14 (50 percent inhibition of plaque formation) (RhV-14 (Rhinovirus)): 0.078 µg/mL
C#CC=C(c1ccccc1)c1ccc2nc(N)n(S(=O)(=O)C(C)C)c2c1F [22 (trans)] | 1.9 (≈ 4.96 µM) | – | –
C#CC=C(c1ccccc1)c1cc2c(cc1C)nc(N)n2S(=O)(=O)C(C)C [23 (trans)] | 3.9 (≈ 10.3 µM) | – | –
C#CC=C(c1cccc(F)c1)c1ccc2nc(N)n(S(=O)(=O)C(C)C)c2c1 [24 (trans)] | 0.088 (≈ 0.229 µM) | – | IC50 (RhV-1 (Rhinovirus)): 0.027 µg/mL (≈ 0.0704 µM); IC50 (RhV-2 (Rhinovirus)): 0.069 µg/mL (≈ 0.18 µM); IC50 (RhV-16 (Rhinovirus)): 0.057 µg/mL (≈ 0.149 µM)
C#CC=C(c1ccc(OC)c(F)c1)c1ccc2nc(N)n(S(=O)(=O)C(C)C)c2c1 [25 (cis)] | – | – | IC50, RhV-14 (50 percent inhibition of plaque formation) (RhV-14 (Rhinovirus)): 0.428 µg/mL
C#CC=C(c1ccc(OC)c(F)c1)c1ccc2nc(N)n(S(=O)(=O)C(C)C)c2c1 [25 (trans)] | – | – | IC50 (RhV-1 (Rhinovirus)): 0.049 µg/mL (≈ 0.119 µM); IC50, RhV-14 (50 percent inhibition of plaque formation) (RhV-14 (Rhinovirus)): 0.065 µg/mL; IC50 (RhV-2 (Rhinovirus)): 0.054 µg/mL (≈ 0.131 µM); IC50 (RhV-16 (Rhinovirus)): 0.06 µg/mL (≈ 0.145 µM)
C#CC=C(c1ccc2nc(N)n(S(=O)(=O)C(C)C)c2c1)c1cc(F)ccc1F [26 (trans)] | 0.115 (≈ 0.286 µM) | – | IC50 (RhV-1 (Rhinovirus)): 0.096 µg/mL (≈ 0.239 µM); IC50 (RhV-2 (Rhinovirus)): 0.079 µg/mL (≈ 0.197 µM); IC50 (RhV-16 (Rhinovirus)): 0.099 µg/mL (≈ 0.247 µM)
C#CC=C(c1cccc(Cl)c1)c1ccc2nc(N)n(S(=O)(=O)C(C)C)c2c1 [27 (trans)] | 0.253 (≈ 0.633 µM) | – | IC50 (RhV-1 (Rhinovirus)): 0.129 µg/mL (≈ 0.323 µM); IC50 (RhV-2 (Rhinovirus)): 0.123 µg/mL (≈ 0.308 µM); IC50 (RhV-16 (Rhinovirus)): 0.185 µg/mL (≈ 0.463 µM)
C#CC=C(c1ccc(OC(F)(F)F)cc1)c1ccc2nc(N)n(S(=O)(=O)C(C)C)c2c1 [28 (trans)] | – | – | IC50 (RhV-2 (Rhinovirus)): 0.535 µg/mL (≈ 1.19 µM)
C#CC=C(c1cc(F)cc(F)c1)c1ccc2nc(N)n(S(=O)(=O)C(C)C)c2c1 [29 (trans)] | 0.236 (≈ 0.588 µM) | – | IC50 (RhV-1 (Rhinovirus)): 0.124 µg/mL (≈ 0.309 µM); IC50 (RhV-2 (Rhinovirus)): 0.176 µg/mL (≈ 0.438 µM); IC50 (RhV-16 (Rhinovirus)): 0.261 µg/mL (≈ 0.65 µM)
C#CC=C(c1ccc([S+](C)[O-])cc1)c1ccc2nc(N)n(S(=O)(=O)C(C)C)c2c1 (stereo not drawn) [30 (trans)] | – | 0.07 (≈ 0.164 µM) | –
C#CC=C(c1ccc(S(C)(=O)=O)cc1)c1ccc2nc(N)n(S(=O)(=O)C(C)C)c2c1 [31 (trans)] | – | 0.05 (≈ 0.113 µM) | –
CC#CC=C(c1cccc(F)c1)c1ccc2nc(N)n(S(=O)(=O)C(C)C)c2c1 [33D (trans)] | 0.19 (≈ 0.478 µM) | – | –
